Source: ChEMBL document CHEMBL5620382, “Fluoroindole chalcone analogues targeting the colchicine binding site of tubulin for colorectal oncotherapy” (Eur J Med Chem, 2023)
Calls of active or inactive are those of the source. The rule behind the calls is not given here.

What follows are molecules tested on HCT-116 (assay: Anti-tumor activity against human HCT-116 cells xenografted in BALB/c mouse assessed as inhibition of tumor growth at 7 mg/kg, ip thrice a week for three weeks). Conditions: time 3.0 weeks.
Format: functional, organism-based

In the case of `CC(=O)O[C@H]1C(=O)[C@@]2(C)[C@H]([C@H](OC(=O)c3ccccc3)[C@]3(O)C[C@H](OC(=O)[C@H](O)[C@@H](NC(=O)c4ccccc4)c4ccccc4)C(C)=C1C3(C)C)[C@]1(OC(C)=O)CO[C@@H]1C[C@@H]2O` [PACLITAXEL], the Activity is reported as “Active”.

The molecules below were run on HCT-116 (assay: Cytotoxicity against human HCT-116 cells assessed as growth inhibition measured after 48 hrs by CCK-8 assay). Conditions: not given.
Format: functional

`COc1cc(C(=O)/C(C)=C/c2c[nH]c3ccc(Cl)cc23)cc(OC)c1OC` and `COc1cc(C(=O)/C(C)=C/c2c[nH]c3ccc(C)cc23)cc(OC)c1OC` are within 1.5-fold of each other in GI50: 70 nM for the first, 71 nM for the second.

Compared with `COc1cc(C(=O)/C(C)=C/c2c[nH]c3c(C)cccc23)cc(OC)c1OC`, `COc1cc(C(=O)/C(C)=C/c2c[nH]c3cccc(C)c23)cc(OC)c1OC` is 5.6-fold higher in GI50: 107 nM for the first, 602 nM for the second.

First: COc1cc(OC)cc(C(=O)/C(C)=C/c2c[nH]c3ccccc23)c1
Second: COc1cncc(C(=O)/C(C)=C/c2c[nH]c3ccccc23)c1
The GI50 of the first is 3.7-fold lower: 65 nM for the first, 240 nM for the second.

`COc1cc(C(=O)/C(C)=C/c2c[nH]c3cc([N+](=O)[O-])ccc23)cc(OC)c1OC` and `COc1cc(C(=O)/C(C)=C/c2c[nH]c3ccc([N+](=O)[O-])cc23)cc(OC)c1OC` are within 1.5-fold of each other in GI50: 76 nM for the first, 74 nM for the second.

`COc1cc(C(=O)/C(C)=C/c2cnc3ccccn23)cc(OC)c1OC` and `COc1cc(C(=O)/C(C)=C/c2cnn3ccccc23)cc(OC)c1OC` are within 1.5-fold of each other in GI50: 71 nM for the first, 79 nM for the second.

First: C/C(=C\c1c[nH]c2ccccc12)C(=O)c1ccccc1
Second: COc1cccc(C(=O)/C(C)=C/c2c[nH]c3ccccc23)c1
The GI50 of the first is higher: over 15000 nM for the first, 348 nM for the second.

Compared with `COc1cc(C(=O)/C(C)=C/c2c[nH]c3ccc(F)cc23)cc(OC)c1OC`, `COc1cc(C(=O)/C(C)=C/c2c[nH]c3ccc(Br)cc23)cc(OC)c1OC` is higher in GI50: 29 nM for the first, over 8000 nM for the second.

`COc1cc(C(=O)/C(C)=C/c2c[nH]c3ccncc23)cc(OC)c1OC` and `COc1cc(C(=O)/C(C)=C/c2c[nH]c3cnccc23)cc(OC)c1OC` are within 1.5-fold of each other in GI50: 1080 nM for the first, 821 nM for the second.

Going from `COC(=O)c1ccc2c(/C=C(\C)C(=O)c3cc(OC)c(OC)c(OC)c3)c[nH]c2c1` to `COc1cc(C(=O)/C(C)=C/c2c[nH]c3cc(C(=O)O)ccc23)cc(OC)c1OC`, the GI50 rises from 536 nM to over 10000 nM.

Going from `CC/C(=C\c1c[nH]c2ccccc12)C(=O)c1cc(OC)c(OC)c(OC)c1` to `COc1cc(C(=O)/C(C)=C/c2c[nH]c3ccccc23)cc(OC)c1OC`, the GI50 falls from 43 nM to 0.99 nM (43-fold).

`COc1cc(C(=O)/C(C)=C/c2c[nH]c3cccnc23)cc(OC)c1OC` and `COc1cc(C(=O)/C(C)=C/c2c[nH]c3ncccc23)cc(OC)c1OC` are within 1.5-fold of each other in GI50: 59 nM for the first, 49 nM for the second.

`COc1cc(C(=O)/C(C)=C/c2c[nH]c3ccccc23)cc2c1OCO2` and `COc1ccc(C(=O)/C(C)=C/c2c[nH]c3ccccc23)cc1OC` are within 1.5-fold of each other in GI50: 61 nM for the first, 74 nM for the second.

First: COc1cc(C(=O)/C(C)=C/c2c[nH]c3cc(N)ccc23)cc(OC)c1OC
Second: COc1cc(C(=O)/C(C)=C/c2c[nH]c3cc(C)ccc23)cc(OC)c1OC
The GI50 of the first is 1.5-fold higher: 69 nM for the first, 46 nM for the second.

`COc1ccc2c(/C=C(\C)C(=O)c3cc(OC)c(OC)c(OC)c3)c[nH]c2c1` and `COc1cc(C(=O)/C(C)=C/c2c[nH]c3c([N+](=O)[O-])cccc23)cc(OC)c1OC` are within 1.5-fold of each other in GI50: 74 nM for the first, 91 nM for the second.

`O=C(/C=C/c1c[nH]c2ccccc12)c1ccccc1` and `COc1cccc2c1CC/C(=C\c1c[nH]c3ccccc13)C2=O` cannot be ordered by GI50: over 10000 nM for the first, over 10000 nM for the second.

For `COc1cc(C(=O)/C(C)=C/c2csc3ccccc23)cc(OC)c1OC`, the GI50 was 200 nM.

The molecules below were run on HCT-116 (assay: Antiproliferative activity against human HCT116 cells assessed as inhibition of proliferation measured after 24 hrs by CCK-8 assay). Conditions: HCT-116, 24 h.
Format: functional, cell-based

Compared with `CC(=O)O[C@H]1C(=O)[C@@]2(C)[C@H]([C@H](OC(=O)c3ccccc3)[C@]3(O)C[C@H](OC(=O)[C@H](O)[C@@H](NC(=O)c4ccccc4)c4ccccc4)C(C)=C1C3(C)C)[C@]1(OC(C)=O)CO[C@@H]1C[C@@H]2O` [PACLITAXEL], `COc1ccc(/C=C\c2cc(OC)c(OC)c(OC)c2)cc1O` [COMBRETASTATIN A4] is 1.5-fold lower in IC50: 24 nM for the first, 15.8 nM for the second. The second is the more potent here.
